Results as given in patent US20170239289A1, “TREATMENT OF INFLAMMATION, RESPIRATORY TRACT INFECTIONS AND CYSTIC FIBROSIS” (Advanced Inhalation Therapies (AIT) Ltd., priority 2014, published 2017).
Where “and” joins values, the source holds several entries; their conditions need not be identical. Identical values can stand only once.

How the values were obtained:
C-reactive protein (CRP) = experiment: Example 4: CRP levels over time; assay type: in vivo, human; settings: three subjects with systemic inflammation (CRP greater than 5 mg/L) on Day 1
Protocol: In addition to their standard care, subjects were administered three 30-minute inhalations per day of 160 ppm NO (with O2/air) for 10 working days (i.e., 5 days on treatment, 2 days off treatment, 5 days on treatment, for a total of 10 treatment days and 30 inhalations).
Secondary Endpoints—Efficacy: • Comparison of FEV1 improvement before and after NO treatment Observational Endpoints: • To determine the reduction in bacterial and fungal sputum load during each week of NO treatment compared to bacterial sputum load before NO treatment • Assess the improvement of lung function indices during and after NO intermittent inhalation treatment as determined by spirometry (i.e., FVC, FEV1, FEV1/FVC, forced expiratory flow 25% to 75% (FEF 25-75)) • Evaluate C-reactive protein (CRP) levels over time • Number of subjects with study drug related bleeding at any time point

[1] = tested on: human subjects diagnosed with acute bronchiolitis; experiment: Example 3: randomized bronchiolitis study, infants 2-12 months; 160 ppm NO 30 min 5x daily up to 5 days plus O2 vs O2 alone; efficacy; assay type: in vivo
Description: Eligible subjects were randomized (1:1) to receive intermittent NO and standard treatment with O2 (hereafter referred to as NO treatment) or standard treatment with O2 (hereafter referred to as standard treatment) alone for a treatment period of up to 5 days. During treatment, MetHb and O2 saturation levels were continuously monitored using a dedicated monitor.
In addition to standard supportive O2 treatment which was initiated prior to randomization, subjects in the NO group were given five 30 minute inhalations per day of 160 ppm NO, at intervals of 3 to 4 hours, until subject improvement led to a physician decision of fit to discharge, to a maximum of 25 inhalations over 5 consecutive days. Inhalations were administered via hospital face masks (Hospiltak, Unomedical Inc).
All subjects in the control group were managed with standard supportive O2 treatment in the same way as the active treatment group, but without actual NO administration.
Secondary Endpoints—Efficacy: • LOS in hours, measured as time from first inhalation treatment to “fit to discharge” • Time to reach 92% O2 saturation (in room air) measured as time from first inhalation treatment to first O2 saturation of 92% sustained to discharge • Time to clinical score of less than or equal to 5 measured as time from first inhalation treatment to clinical score of less than or equal to 5
The following analysis sets were defined for analysis of safety and efficacy: • Intent-to-treat (ITT): Defined as all randomized subjects who received at least one study treatment. This was the main set for analysis of efficacy and safety. • Per-Protocol (PP): Defined as all subjects in the ITT cohort who completed study treatment in compliance with the protocol (i.e., excludes all early termination subjects) and who had no major protocol violations. This was a secondary set for analysis of efficacy.
An additional set for analysis of efficacy was defined post-hoc: • Modified Intent-to-treat (mITT): Defined as all subjects in the ITT, excluding subjects who were prematurely discontinued from treatment and/or or discontinued from the study according to protocol guidelines.
Length of hospitalization stay (LOS) was calculated in hours from the first inhalation treatment to “fit to discharge” defined as physician decision to discharge.
Time to achieve O2 saturation of 92% (improvement) leading to discharge was calculated from first treatment to the first time of O2 saturation of at least 92% before discharge. Time was taken from the clinical score assessments where applicable and from subject daily chart in special circumstances.
Time to clinical score of less than or equal to 5 was calculated from first inhalation to the first time the subject reached a clinical score of less than or equal to 5.
Survival Analysis using a Kaplan-Meier survival function curve was applied for testing the statistical significance of the difference between the study groups in the following endpoints: • LOS, from first inhalation to fit to discharge • Time to achieve 92% Saturation leading to discharge • Time to achieve clinical score less than or equal to 5
The Cox model was applied for comparative analysis of Kaplan-Meier curves. The hazards ratio was estimated via the Cox's regression model.
Post-hoc subgroup analyses of subjects with a LOS less than or equal to 24 hours and greater than 24 hours were also conducted for the key post-hoc secondary endpoints. Additional exploratory analyses were also conducted on a subgroups with LOS greater than 36 hours and a subgroup of the 10 most severe subjects (i.e., longest LOS) from each treatment group. These post-hoc analyses were conducted for the following reasons: • Based on preclinical studies, the anti-viral/anti-microbial treatment effect of NO is expected to take at least 24 hours (i.e., 2.5 treatment hours). • Approximately ⅓ of subjects were discharged after less than 24 hours in hospital. […]

[2] = mITT, 10 most severe subjects from each group
[3] = mITT, LOS greater than 24 hours
[4] = mITT, LOS greater than 36 hours

[N]=O [NO, nitric oxide]
CRP levels from Day 1 to Day 10 (C-reactive protein (CRP)): decreased
Hazard ratio, time to sustained 92% O2 saturation ([1]; ITT (N=42), NO vs standard treatment, 95% CI: 0.392, 1.361): 0.731
Hazard ratio, time to clinical score less than or equal to 5 ([1]; ITT (N=43), NO vs standard treatment, 95% CI: 0.378, 1.404): 0.728
Hazard ratio, LOS (Kaplan-Meier/Cox) ([1]; ITT (N=43), NO vs standard treatment, 95% CI: 0.435, 1.518): 0.812
Time to first 92% O2 saturation sustained to discharge, Mean (SD) ([1]; ITT, All (N = 42)): 35.50 (33.73) hours and 35.50 hours
Time to first 92% O2 saturation sustained to discharge, Median ([1]; ITT, All (N = 42)): 21.08 h
LOS, hours Mean (SD) ([1]; ITT, All (N = 43)): 43.34 (32.95) hours and 43.34 hours
LOS, hours Median ([1]; ITT, All (N = 43)): 40.03 h
Time to Clinical Score ≦5, Mean (SD) ([1]; ITT, All (N = 43)): 32.83 (30.61) hours and 32.83 hours
Time to Clinical Score ≦5, Median ([1]; ITT, All (N = 43)): 21.08 h
LOS, hours Mean (SD) ([1]; ITT, LOS >24 hours (N = 27)): 53.27 h
LOS, hours Median ([1]; ITT, LOS >24 hours (N = 27)): 41.92 h
Time to Clinical Score ≦5, Mean (SD) ([1]; ITT, LOS >24 hours (N = 27)): 39.62 h
Time to Clinical Score ≦5, Median ([1]; ITT, LOS >24 hours (N = 27)): 39.92 h
Time to first 92% O2 saturation sustained to discharge, Mean (SD) ([1]; ITT, LOS >24 hours (N = 27)): 43.35 h
Time to first 92% O2 saturation sustained to discharge, Median ([1]; ITT, LOS >24 hours (N = 27)): 41.17 h
Hazard ratio, time to clinical score less than or equal to 5 ([1]; ITT, LOS greater than 24 hours, 95% CI: 0.161, 0.949): 0.391
Hazard ratio, LOS (Kaplan-Meier/Cox) ([1]; ITT, LOS greater than 24 hours, 95% CI: 0.211, 1.091): 0.480
Hazard ratio, time to sustained 92% O2 saturation ([1]; ITT, LOS greater than 24 hours, 95% CI: 0.232, 1.145): 0.515
Time to first 92% O2 saturation sustained to discharge, Mean (SD) ([1]; ITT, LOS ≦24 hours (N = 15)): 15.86 h
Time to first 92% O2 saturation sustained to discharge, Median ([1]; ITT, LOS ≦24 hours (N = 15)): 16.78 h
LOS, hours Mean (SD) ([1]; ITT, LOS ≦24 hours (N = 16)): 18.52 h
LOS, hours Median ([1]; ITT, LOS ≦24 hours (N = 16)): 18.50 h
Time to Clinical Score ≦5, Mean (SD) ([1]; ITT, LOS ≦24 hours (N = 16)): 15.86 h
Time to Clinical Score ≦5, Median ([1]; ITT, LOS ≦24 hours (N = 16)): 16.78 h
Hazard ratio, time to sustained 92% O2 saturation ([1]; PP (N=38), 95% CI: 0.334, 1.302): 0.660
Hazard ratio, time to clinical score less than or equal to 5 ([1]; PP (N=39), 95% CI: 0.332, 1.324): 0.663
Hazard ratio, LOS (Kaplan-Meier/Cox) ([1]; PP (N=39), 95% CI: 0.444, 1.688): 0.866
Time to first 92% O2 saturation sustained to discharge, Mean (SD) ([1]; PP, All (N = 38)): 30.17 (21.06) hours and 30.17 hours
Time to first 92% O2 saturation sustained to discharge, Median ([1]; PP, All (N = 38)): 21.08 h
LOS, hours Mean (SD) ([1]; PP, All (N = 39)): 38.79 (21.52) hours and 38.79 hours
LOS, hours Median ([1]; PP, All (N = 39)): 40.03 h
Time to Clinical Score ≦5, Mean (SD) ([1]; PP, All (N = 39)): 27.18 (13.17) hours and 27.18 hours
Time to Clinical Score ≦5, Median ([1]; PP, All (N = 39)): 21.08 h
LOS, hours Mean (SD) ([1]; PP, LOS >24 hours (N = 24)): 46.03 h
LOS, hours Median ([1]; PP, LOS >24 hours (N = 24)): 41.83 h
Time to Clinical Score ≦5, Mean (SD) ([1]; PP, LOS >24 hours (N = 24)): 31.41 h
Time to Clinical Score ≦5, Median ([1]; PP, LOS >24 hours (N = 24)): 34.92 h
Time to first 92% O2 saturation sustained to discharge, Mean (SD) ([1]; PP, LOS >24 hours (N = 24)): 35.47 h
Time to first 92% O2 saturation sustained to discharge, Median ([1]; PP, LOS >24 hours (N = 24)): 38.98 h
Hazard ratio, time to clinical score less than or equal to 5 ([1]; PP, LOS greater than 24 hours, 95% CI: 0.093, 0.799): 0.273
Hazard ratio, time to sustained 92% O2 saturation ([1]; PP, LOS greater than 24 hours, 95% CI: 0.139, 0.921): 0.358
Hazard ratio, LOS (Kaplan-Meier/Cox) ([1]; PP, LOS greater than 24 hours, 95% CI: 0.164, 1.062): 0.418
Time to first 92% O2 saturation sustained to discharge, Mean (SD) ([1]; PP, LOS ≦24 hours (N = 14)): 15.32 h
Time to first 92% O2 saturation sustained to discharge, Median ([1]; PP, LOS ≦24 hours (N = 14)): 16.75 h
LOS, hours Mean (SD) ([1]; PP, LOS ≦24 hours (N = 15)): 18.50 h
LOS, hours Median ([1]; PP, LOS ≦24 hours (N = 15)): 18.42 h
Time to Clinical Score ≦5, Mean (SD) ([1]; PP, LOS ≦24 hours (N = 15)): 15.32 h
Time to Clinical Score ≦5, Median ([1]; PP, LOS ≦24 hours (N = 15)): 16.75 h
median time to clinical score less than or equal to 5 ([1]; mITT, 10 most severe subjects (based on LOS) from each group): 41.56 h
median LOS [1, 2]: 42.14 h
median time to 92% O2 saturation sustained to discharge [1, 2]: 41.59 h
median time to clinical score less than or equal to 5 [1, 3]: 34.92 h
median time to first 92% O2 saturation sustained to discharge [1, 3]: 38.98 h
median LOS ([1]; mITT, LOS greater than 24 hours (N=25)): 41.83 h
Hazard ratio, time to clinical score less than or equal to 5 ([1]; mITT, LOS greater than 24 hours, 95% CI: 0.081, 0.699): 0.238
Hazard ratio, time to sustained 92% O2 saturation ([1]; mITT, LOS greater than 24 hours, 95% CI: 0.119, 0.797): 0.308
Hazard ratio, LOS (Kaplan-Meier/Cox) ([1]; mITT, LOS greater than 24 hours, 95% CI: 0.140, 0.913): 0.357
median LOS [1, 4]: 41.92 h
median time to 92% O2 saturation sustained to discharge [1, 4]: 41.37 h
median time to clinical score less than or equal to 5 [1, 4]: 41.37 h
